Laboratory results reported in publication PMC6315694, “Synthesis of Pseudellone Analogs and Characterization as Novel T-type Calcium Channel Blockers” (Marine Drugs, 2018).
Read-outs that look alike come from different tables or passages of the source.

Tests used:
Format in all cases: cell-based
CaV3.2 = CaV3.2 (Homo sapiens, UniProt O95180); assay: T-type calcium channel window current FLIPR assay, CaV3.2
Description: (§1) The human embryonic kidney 293 (HEK 293) cell lines (from Emmanuel Bourinet, Montpellier, France) stably expressing CaV3.2 or CaV3.3 were cultured under 5% carbon dioxide at 37 °C in Dulbecco’s Modified Eagle Medium (DMEM) Glutamax (Gibco, Life Technologies, Carlsbad, CA, USA) supplemented with 10% (v/v) fetal bovine serum (FBS), 100 U/mL penicillin, 100 μg/mL streptomycin (Gibco, Life Technologies), and 750 μg/mL geneticin (G418) (Gibco, Life Technologies). The Chinese Hamster Ovary (CHO) cell lines (Emmanuel Bourinet, Montpellier, France) expressing CaV3.1 were cultured under 5% carbon dioxide at 37 °C in Alpha Minimum Essential Media (MEM) Glutamax (Gibco, Life Technologies), supplemented with 10% (v/v) fetal bovine serum (FBS) and 300 μg/mL geneticin (G418) (Gibco, Life Technologies). The human neuroblastoma SH-SY5 Y cells (Victor Diaz, Goettingen, Germany) were cultured under 5% carbon dioxide at 37 °C in RPMI 1640 antibiotic-free medium (Invitrogen, Carlsbad, CA, USA), supplemented with 15% FBS and 2 mM GlutaMAX™ (Invitrogen). D-PBS (Gibco, Life Technologies) was used to wash the cells, and 0.25% Trypsin-EDTA (Gibco, Life Technologies) was used to detach cells from the flask surface. They were split in a ratio of 1:5 (ideally 1000 cells/cm^2) when they reached 70%–80% confluence (every 2–3 days). Transiently transfected CaV3.1HEK293 T cells were used in FLIPR Assays. HEK 293 T cells were cultured under 5% carbon dioxide at 37 °C in DMEM supplemented with 10% (v/v) FBS. D-PBS was used to wash the cells, and 0.25% Trypsin-EDTA was used to detach cells from the flask surface. The cells were split and seeded at 6 million cells per T175 flask, to reach 70%–80% confluence after 24 h. The next day, 12 μg DNA of human CaV3.1 was incubated in 900 μL serum-free DMEM with 36 μL FuGENE HD transfection reagent (Promega Corporation, Madison, WI, US) (1:3 DNA/Fugene ratio) for 20 min, and then the mixture was added into the cell flask slowly, drop by drop. After the transfection, the cells were cultured under 5% carbon dioxide at 37 °C for 24 h and then moved to a 28 °C incubator.
(§2) HEK 293 cells stably expressing CaV3.2 or CaV3.3 were seeded into 384-well black wall clear bottom plates (Corning, Lowell, MA, USA) at a density of 30,000 cells per well. Transiently transfected CaV3.1HEK293 T cells were seeded into 384-well black wall clear bottom plates at a density of 60,000 cells per well. Once the cells reached 90%–95% confluence after 24 h, the media were removed from the wells and replaced with 20 μL of 10% calcium 4 dye (Molecular Devices, Sunnyvale, CA, USA) in HBSS-HEPES (containing 5 mM KCl, 10 mM HEPES, 140 mM NaCl, 10 mM glucose, and 0.5 mM CaCl2, pH 7.4) with 0.1% bovine serum albumin (BSA). The cells were incubated for 30 min at 37 °C in the presence of 5% carbon dioxide. Each well on the reagent plates for the first addition contained 15 μL different concentrations of compounds dissolved in HBSS-HEPES containing 0.1% BSA and <0.1% DMSO and was incubated for 20 min after loading. Positive and negative controls contained 15 μL of HBSS-HEPES (0.1% BSA) alone. The plates were placed in the FLIPR^TETRA (Molecular Devices, Sunnyvale, CA, USA) programmed to measure maximum fluorescence intensity following a second addition of the agonist 5 mM CaCl2. The data acquisition parameters were adjusted as follows: Baseline fluorescence of 1500–2000 arbitrary fluorescence units (AFU), emission wavelength of 515–575 nm, and excitation wavelength of 470–495 nm. HBSS-HEPES (0.1% BSA) was used in the second addition as a negative control. One fluorescence reading was taken before the second addition. Then the fluorescence readings were recorded every two seconds for 300 s. Raw fluorescence readings in the form of relative light units were converted to response over baseline using ScreenWorks® (Molecular Devices, version 3.2.0.14) software.
(§3) Data were plotted and analyzed using GraphPad Prism v7.0 (GraphPad Software Inc., San Diego, CA, USA).

[1] = target: recombinant hCaV3.2 channels (Homo sapiens, UniProt O95180); assay: Whole-cell patch-clamp QPatch 16 X, CaV3.2
Sequence of recombinant hCaV3.2 channels (O95180 whole entry): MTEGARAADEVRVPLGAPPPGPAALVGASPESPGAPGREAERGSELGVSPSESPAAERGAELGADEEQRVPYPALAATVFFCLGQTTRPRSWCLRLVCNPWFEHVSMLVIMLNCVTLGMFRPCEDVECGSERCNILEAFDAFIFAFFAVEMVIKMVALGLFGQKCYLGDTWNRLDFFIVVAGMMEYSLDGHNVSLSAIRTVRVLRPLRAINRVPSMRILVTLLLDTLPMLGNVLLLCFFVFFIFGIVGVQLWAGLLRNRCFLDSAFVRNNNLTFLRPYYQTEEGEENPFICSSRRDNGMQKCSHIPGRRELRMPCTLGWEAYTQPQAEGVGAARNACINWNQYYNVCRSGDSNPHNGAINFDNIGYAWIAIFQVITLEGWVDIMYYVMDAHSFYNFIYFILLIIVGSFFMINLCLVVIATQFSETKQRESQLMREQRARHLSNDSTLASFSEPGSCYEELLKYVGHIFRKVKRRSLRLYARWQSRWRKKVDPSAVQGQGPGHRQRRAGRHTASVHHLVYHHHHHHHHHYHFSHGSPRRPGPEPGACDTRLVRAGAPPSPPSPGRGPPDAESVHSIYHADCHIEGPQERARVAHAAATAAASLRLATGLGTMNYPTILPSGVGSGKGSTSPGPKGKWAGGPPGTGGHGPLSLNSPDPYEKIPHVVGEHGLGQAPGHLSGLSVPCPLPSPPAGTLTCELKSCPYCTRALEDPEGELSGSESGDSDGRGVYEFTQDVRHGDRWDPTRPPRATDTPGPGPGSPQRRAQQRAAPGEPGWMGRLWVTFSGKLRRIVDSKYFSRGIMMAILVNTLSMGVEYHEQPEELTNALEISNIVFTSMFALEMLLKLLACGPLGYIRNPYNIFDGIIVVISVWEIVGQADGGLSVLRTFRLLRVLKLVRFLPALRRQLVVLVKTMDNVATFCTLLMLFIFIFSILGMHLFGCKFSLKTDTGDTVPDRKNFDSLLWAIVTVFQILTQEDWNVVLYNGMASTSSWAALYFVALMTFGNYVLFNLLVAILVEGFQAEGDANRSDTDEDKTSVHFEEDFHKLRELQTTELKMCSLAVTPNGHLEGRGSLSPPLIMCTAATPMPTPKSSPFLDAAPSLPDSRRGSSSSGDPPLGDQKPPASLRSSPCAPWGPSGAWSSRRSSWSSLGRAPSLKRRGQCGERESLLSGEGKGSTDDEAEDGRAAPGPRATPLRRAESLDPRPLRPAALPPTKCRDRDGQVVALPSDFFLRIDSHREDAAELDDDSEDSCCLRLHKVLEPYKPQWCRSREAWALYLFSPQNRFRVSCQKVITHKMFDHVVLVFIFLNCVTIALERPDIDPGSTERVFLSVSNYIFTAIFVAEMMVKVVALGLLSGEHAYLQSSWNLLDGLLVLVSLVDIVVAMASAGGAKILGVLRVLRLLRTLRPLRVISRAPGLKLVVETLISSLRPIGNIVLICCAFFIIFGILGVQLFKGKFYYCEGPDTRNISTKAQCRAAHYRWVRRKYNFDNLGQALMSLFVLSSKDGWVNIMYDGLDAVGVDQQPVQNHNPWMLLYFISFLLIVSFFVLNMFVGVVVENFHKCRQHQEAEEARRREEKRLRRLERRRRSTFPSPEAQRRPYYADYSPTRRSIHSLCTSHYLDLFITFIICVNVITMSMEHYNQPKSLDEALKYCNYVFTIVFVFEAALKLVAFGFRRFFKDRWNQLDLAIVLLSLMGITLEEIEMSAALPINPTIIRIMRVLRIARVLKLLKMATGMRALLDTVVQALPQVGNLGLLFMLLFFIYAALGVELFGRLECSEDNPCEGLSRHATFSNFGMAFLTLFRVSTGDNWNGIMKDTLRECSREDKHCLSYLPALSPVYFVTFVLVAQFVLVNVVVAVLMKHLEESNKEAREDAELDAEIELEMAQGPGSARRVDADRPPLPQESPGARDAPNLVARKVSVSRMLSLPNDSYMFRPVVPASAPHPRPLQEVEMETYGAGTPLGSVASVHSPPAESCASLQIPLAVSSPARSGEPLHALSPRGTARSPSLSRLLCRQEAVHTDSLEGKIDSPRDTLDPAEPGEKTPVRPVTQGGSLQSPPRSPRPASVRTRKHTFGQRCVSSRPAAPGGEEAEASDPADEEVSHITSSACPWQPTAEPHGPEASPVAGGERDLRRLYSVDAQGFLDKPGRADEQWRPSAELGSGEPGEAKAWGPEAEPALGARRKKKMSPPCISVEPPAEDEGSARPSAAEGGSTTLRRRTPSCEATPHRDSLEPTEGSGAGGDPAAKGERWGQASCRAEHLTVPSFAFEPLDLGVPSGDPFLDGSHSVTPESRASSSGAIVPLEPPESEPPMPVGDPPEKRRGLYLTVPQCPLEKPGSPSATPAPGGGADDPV
Description: as §1
Whole-cell patch-clamp experiments were performed on an automated electrophysiology platform QPatch 16 X (Sophion Bioscience A/S, Ballerup, Denmark) in single-hole configuration using 16-channel planar patch chip QPlates (Sophion Bioscience A/S). The extracellular recording solution contained, in mM: TEACl 157, MgCl2 0.5, CaCl2 5, and HEPES 10; pH 7.4 adjusted with TEAOH; and osmolarity 320 mOsm. The intracellular pipette solution contained, in mM: CsF 140, EGTA 1, HEPES 10, and NaCl 10; pH 7.2 adjusted with CsOH; and osmolarity 325 mOsm. […]
Data were plotted and analyzed using GraphPad Prism v7.0 (GraphPad Software Inc., San Diego, CA, USA). […]

human CaV3.1 = target: T1, human CaV3.1 (Homo sapiens, UniProt O43497); assay: T-type calcium channel window current FLIPR assay, CaV3.1
T1 construct: expressed in transfected cells; host or cells: HEK 293T, transient transfection (FuGENE HD)
T1 sequence (O43497 whole entry): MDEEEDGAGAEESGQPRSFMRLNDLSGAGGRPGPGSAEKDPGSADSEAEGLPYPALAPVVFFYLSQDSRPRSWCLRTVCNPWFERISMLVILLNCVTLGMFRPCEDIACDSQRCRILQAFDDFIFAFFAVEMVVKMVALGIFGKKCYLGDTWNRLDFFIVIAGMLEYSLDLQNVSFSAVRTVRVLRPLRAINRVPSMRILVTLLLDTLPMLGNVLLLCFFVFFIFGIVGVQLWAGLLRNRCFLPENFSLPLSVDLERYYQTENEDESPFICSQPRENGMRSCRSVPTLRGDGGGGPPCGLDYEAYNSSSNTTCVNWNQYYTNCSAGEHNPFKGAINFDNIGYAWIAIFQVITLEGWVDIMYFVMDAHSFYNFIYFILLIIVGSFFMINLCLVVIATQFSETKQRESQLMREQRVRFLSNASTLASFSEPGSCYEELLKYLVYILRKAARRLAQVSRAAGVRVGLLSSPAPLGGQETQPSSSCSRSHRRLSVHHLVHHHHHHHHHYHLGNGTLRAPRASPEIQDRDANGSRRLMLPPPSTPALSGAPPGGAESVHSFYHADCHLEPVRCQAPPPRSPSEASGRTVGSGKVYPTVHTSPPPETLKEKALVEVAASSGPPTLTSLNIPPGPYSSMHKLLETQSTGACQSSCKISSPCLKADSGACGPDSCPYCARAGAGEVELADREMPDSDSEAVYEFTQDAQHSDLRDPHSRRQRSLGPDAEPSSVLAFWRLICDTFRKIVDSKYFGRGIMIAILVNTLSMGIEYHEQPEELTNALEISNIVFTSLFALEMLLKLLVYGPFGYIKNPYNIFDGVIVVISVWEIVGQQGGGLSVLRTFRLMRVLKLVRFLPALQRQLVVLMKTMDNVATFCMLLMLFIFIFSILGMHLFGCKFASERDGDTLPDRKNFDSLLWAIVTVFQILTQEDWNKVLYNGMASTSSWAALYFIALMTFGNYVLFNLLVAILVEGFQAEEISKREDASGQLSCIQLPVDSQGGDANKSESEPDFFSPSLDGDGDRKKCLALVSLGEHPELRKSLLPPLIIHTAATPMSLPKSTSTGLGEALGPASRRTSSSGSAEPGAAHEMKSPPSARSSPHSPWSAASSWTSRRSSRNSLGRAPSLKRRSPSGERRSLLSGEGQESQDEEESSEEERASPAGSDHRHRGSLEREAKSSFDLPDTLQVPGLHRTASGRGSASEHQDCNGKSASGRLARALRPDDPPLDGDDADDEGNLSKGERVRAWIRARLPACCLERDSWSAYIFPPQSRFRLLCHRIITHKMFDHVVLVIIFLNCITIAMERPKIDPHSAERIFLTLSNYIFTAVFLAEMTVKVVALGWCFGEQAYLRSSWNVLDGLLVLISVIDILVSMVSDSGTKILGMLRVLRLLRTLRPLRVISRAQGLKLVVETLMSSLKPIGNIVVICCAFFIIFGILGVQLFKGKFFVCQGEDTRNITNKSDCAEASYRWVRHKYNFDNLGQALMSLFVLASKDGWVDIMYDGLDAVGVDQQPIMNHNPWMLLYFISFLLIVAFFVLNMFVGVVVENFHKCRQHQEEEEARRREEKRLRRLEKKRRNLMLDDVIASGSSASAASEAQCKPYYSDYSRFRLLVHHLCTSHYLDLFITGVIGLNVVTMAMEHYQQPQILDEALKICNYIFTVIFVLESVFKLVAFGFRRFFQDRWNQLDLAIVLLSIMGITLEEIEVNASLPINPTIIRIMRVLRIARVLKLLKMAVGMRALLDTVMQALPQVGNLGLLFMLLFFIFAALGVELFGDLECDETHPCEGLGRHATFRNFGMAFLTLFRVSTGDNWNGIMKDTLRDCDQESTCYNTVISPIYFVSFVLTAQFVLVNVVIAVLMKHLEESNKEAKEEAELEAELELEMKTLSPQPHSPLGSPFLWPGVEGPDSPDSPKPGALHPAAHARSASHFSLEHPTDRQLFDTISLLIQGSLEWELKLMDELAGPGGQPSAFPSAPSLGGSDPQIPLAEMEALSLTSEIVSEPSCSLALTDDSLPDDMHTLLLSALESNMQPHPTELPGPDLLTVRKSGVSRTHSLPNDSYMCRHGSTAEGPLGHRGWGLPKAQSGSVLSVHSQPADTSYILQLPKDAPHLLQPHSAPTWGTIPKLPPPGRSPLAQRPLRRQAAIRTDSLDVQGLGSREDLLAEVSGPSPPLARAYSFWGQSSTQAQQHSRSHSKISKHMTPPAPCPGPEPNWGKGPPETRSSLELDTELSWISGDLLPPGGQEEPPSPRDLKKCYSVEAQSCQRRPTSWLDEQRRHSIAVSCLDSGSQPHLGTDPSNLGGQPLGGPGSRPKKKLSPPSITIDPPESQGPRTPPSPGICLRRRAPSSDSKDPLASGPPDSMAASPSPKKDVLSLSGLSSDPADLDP
Description: as §1, §2, §3

Sequence of CaV3.2 (O95180 whole entry): as the sequence (O95180 whole entry) above

`COC(=O)[C@H](Cc1c[nH]c2ccccc12)NC(=O)C(C)(c1c[nH]c2ccccc12)c1c[nH]c2ccccc12` [Compound 3, Methyl (2,2-di(1H-indol-3-yl)propanoyl)-L-tryptophanate] was tested, and the “Kind of block of the CaV3.2 window current, in words” value (CaV3.2; FLIPR) was “potent partial blocking”, the IC50 (CaV3.2; FLIPR window current assay, HEK 293 stable, N = 3, mean ± SEM, read-out: IC50 CaV3.2 (LVA CaVs)) was 6.59 ± 0.66 µM and the Emax (CaV3.2; FLIPR, n = 3, read-out: Emax, inhibition for CaV3.2) was 56.9%. For the same molecule, the IC50 (CaV3.2; FLIPR, representative curve, n = 4, read-out: IC50 of the representative concentration-response curve, CaV3.2 window current) was 5.77 µM, the “Half-maximal steady-state inactivation V50 of CaV3.2 in the presence of compound” value ([1]; 0.6 µM compound, control V50 −65.40 ± 1.91 mV (n = 9), n = 4–5) was −76.36 ± 1.56 mV and the Emax ([1]; QPatch whole-cell, full inhibition, read-out: Emax value, inhibition of CaV3.2 whole-cell current) was ≥ 95%. The IC50 ([1]; QPatch, 200 ms steps to Vmax (−20 mV) from holding −90 mV, n = 4–5, mean ± SEM, read-out: IC50 CaV3.2 whole-cell current) was 8.82 ± 2.3 µM, the “Shift of half-maximal inactivation V50 of CaV3.2 to hyperpolarized potentials” value ([1]; steady-state inactivation, 0.6 µM compound, versus control) was 11 mV and the IC50 (human CaV3.1; FLIPR window current assay, transiently transfected HEK293T, N = 3, mean ± SEM, read-out: IC50 CaV3.1 (LVA CaVs)) was 58.6 ± 2.62 µM. The Emax (human CaV3.1; FLIPR, n = 3, read-out: Emax, inhibition for CaV3.1) was 75.5%.
